Measured values published in publication PMC9578392, “Safety, Tolerability, and Pharmacokinetics of the Novel Antiviral Agent Ensitrelvir Fumaric Acid, a SARS-CoV-2 3CL Protease Inhibitor, in Healthy Adults” (Antimicrobial Agents and Chemotherapy, 2022).

Test: Blood lipid profiling, single-dose part (Supplementary Table 3)
Type: in vivo, human

## Cn1cnc(Cn2c(=O)[nH]/c(=N\c3cc4cn(C)nc4cc3Cl)n(Cc3cc(F)c(F)cc3F)c2=O)n1 [Ensitrelvir, ensitrelvir fumaric acid]
Cohort A 20 mg single dose, Day 2, baseline mean 0.8825
  Triglyceride, Mean (SD): 1.0032 mmol/L
Cohort A 20 mg single dose, Day 2, baseline mean 4.1635
  Cholesterol, Mean (SD): 4.2842 mmol/L
Cohort A 20 mg single dose, Day 2, baseline mean 460.0
  HDL-C, Mean (SD): 458.3 (47.9) mg/L
Cohort A 20 mg single dose, Day 2, baseline mean 993.3
  LDL-C, Mean (SD): 1048.3 mg/L
Cohort A 20 mg single dose, Day 4, baseline mean 0.8825
  Triglyceride, Mean (SD): 1.3643 mmol/L
Cohort A 20 mg single dose, Day 4, baseline mean 4.1635
  Cholesterol, Mean (SD): 4.2668 mmol/L
Cohort A 20 mg single dose, Day 4, baseline mean 460.0
  HDL-C, Mean (SD): 446.7 (63.1) mg/L
Cohort A 20 mg single dose, Day 4, baseline mean 993.3
  LDL-C, Mean (SD): 1026.7 mg/L
Cohort A 20 mg single dose, Day 7/Early termination, baseline mean 0.8825
  Triglyceride, Mean (SD): 1.3852 mmol/L
Cohort A 20 mg single dose, Day 7/Early termination, baseline mean 4.1635
  Cholesterol, Mean (SD): 4.1290 mmol/L
Cohort A 20 mg single dose, Day 7/Early termination, baseline mean 460.0
  HDL-C, Mean (SD): 440.0 (66.9) mg/L
Cohort A 20 mg single dose, Day 7/Early termination, baseline mean 993.3
  LDL-C, Mean (SD): 966.7 mg/L
Cohort A 20 mg single dose, Follow up, baseline mean 0.8825
  Triglyceride, Mean (SD): 0.7037 mmol/L
Cohort A 20 mg single dose, Follow up, baseline mean 4.1635
  Cholesterol, Mean (SD): 3.9048 mmol/L
Cohort A 20 mg single dose, Follow up, baseline mean 460.0
  HDL-C, Mean (SD): 445.0 (70.1) mg/L
Cohort A 20 mg single dose, Follow up, baseline mean 993.3
  LDL-C, Mean (SD): 923.3 mg/L
Cohort B 70 mg single dose, Day 2, baseline mean 1.0330
  Triglyceride, Mean (SD): 1.1478 mmol/L
Cohort B 70 mg single dose, Day 2, baseline mean 4.0987
  Cholesterol, Mean (SD): 4.1463 mmol/L
Cohort B 70 mg single dose, Day 2, baseline mean 436.7
  HDL-C, Mean (SD): 413.3 (42.7) mg/L
Cohort B 70 mg single dose, Day 2, baseline mean 995.0
  LDL-C, Mean (SD): 1041.7 mg/L
Cohort B 70 mg single dose, Day 4, baseline mean 1.0330
  Triglyceride, Mean (SD): 1.4170 mmol/L
Cohort B 70 mg single dose, Day 4, baseline mean 4.0987
  Cholesterol, Mean (SD): 4.0515 mmol/L
Cohort B 70 mg single dose, Day 4, baseline mean 436.7
  HDL-C, Mean (SD): 411.7 (52.3) mg/L
Cohort B 70 mg single dose, Day 4, baseline mean 995.0
  LDL-C, Mean (SD): 946.7 mg/L
Cohort B 70 mg single dose, Day 7/Early termination, baseline mean 1.0330
  Triglyceride, Mean (SD): 1.4393 mmol/L
Cohort B 70 mg single dose, Day 7/Early termination, baseline mean 4.0987
  Cholesterol, Mean (SD): 3.8145 mmol/L
Cohort B 70 mg single dose, Day 7/Early termination, baseline mean 436.7
  HDL-C, Mean (SD): 396.7 (60.2) mg/L
Cohort B 70 mg single dose, Day 7/Early termination, baseline mean 995.0
  LDL-C, Mean (SD): 881.7 mg/L
Cohort B 70 mg single dose, Follow up, baseline mean 1.0330
  Triglyceride, Mean (SD): 0.8882 mmol/L
Cohort B 70 mg single dose, Follow up, baseline mean 4.0987
  Cholesterol, Mean (SD): 3.7368 mmol/L
Cohort B 70 mg single dose, Follow up, baseline mean 436.7
  HDL-C, Mean (SD): 420.0 (55.1) mg/L
Cohort B 70 mg single dose, Follow up, baseline mean 995.0
  LDL-C, Mean (SD): 873.3 mg/L
Cohort C fasted state 250 mg single dose, Day 2 [Day 16], baseline mean 0.9596
  Triglyceride, Mean (SD): 1.3053 mmol/L
Cohort C fasted state 250 mg single dose, Day 2 [Day 16], baseline mean 4.1053
  Cholesterol, Mean (SD): 3.8918 mmol/L
Cohort C fasted state 250 mg single dose, Day 2 [Day 16], baseline mean 486.3
  HDL-C, Mean (SD): 376.3 (81.9) mg/L
Cohort C fasted state 250 mg single dose, Day 2 [Day 16], baseline mean 900.0
  LDL-C, Mean (SD): 916.3 mg/L
Cohort C fasted state 250 mg single dose, Day 4 [Day 18], baseline mean 0.9596
  Triglyceride, Mean (SD): 1.2235 mmol/L
Cohort C fasted state 250 mg single dose, Day 4 [Day 18], baseline mean 4.1053
  Cholesterol, Mean (SD): 3.9695 mmol/L
Cohort C fasted state 250 mg single dose, Day 4 [Day 18], baseline mean 486.3
  HDL-C, Mean (SD): 401.3 (66.4) mg/L
Cohort C fasted state 250 mg single dose, Day 4 [Day 18], baseline mean 900.0
  LDL-C, Mean (SD): 942.5 mg/L
Cohort C fasted state 250 mg single dose, Day 7 [Day 21]/Early termination, baseline mean 0.9596
  Triglyceride, Mean (SD): 1.0571 mmol/L
Cohort C fasted state 250 mg single dose, Day 7 [Day 21]/Early termination, baseline mean 4.1053
  Cholesterol, Mean (SD): 4.0019 mmol/L
Cohort C fasted state 250 mg single dose, Day 7 [Day 21]/Early termination, baseline mean 486.3
  HDL-C, Mean (SD): 438.8 (76.6) mg/L
Cohort C fasted state 250 mg single dose, Day 7 [Day 21]/Early termination, baseline mean 900.0
  LDL-C, Mean (SD): 923.8 mg/L
Cohort C fasted state 250 mg single dose, Follow up (n 4), baseline mean 0.9596
  Triglyceride, Mean (SD): 0.6295 mmol/L
Cohort C fasted state 250 mg single dose, Follow up (n 4), baseline mean 4.1053
  Cholesterol, Mean (SD): 3.9760 mmol/L
Cohort C fasted state 250 mg single dose, Follow up (n 4), baseline mean 486.3
  HDL-C, Mean (SD): 445.0 mg/L
Cohort C fasted state 250 mg single dose, Follow up (n 4), baseline mean 900.0
  LDL-C, Mean (SD): 977.5 mg/L
Cohort D 500 mg single dose, Day 2, baseline mean 0.7507
  Triglyceride, Mean (SD): 1.2928 mmol/L
Cohort D 500 mg single dose, Day 2, baseline mean 4.2838
  Cholesterol, Mean (SD): 3.9005 mmol/L
Cohort D 500 mg single dose, Day 2, baseline mean 546.7
  HDL-C, Mean (SD): 330.0 mg/L
Cohort D 500 mg single dose, Day 2, baseline mean 990.0
  LDL-C, Mean (SD): 951.7 mg/L
Cohort D 500 mg single dose, Day 4, baseline mean 0.7507
  Triglyceride, Mean (SD): 1.1327 mmol/L
Cohort D 500 mg single dose, Day 4, baseline mean 4.2838
  Cholesterol, Mean (SD): 3.8273 mmol/L
Cohort D 500 mg single dose, Day 4, baseline mean 546.7
  HDL-C, Mean (SD): 340.0 (74.8) mg/L
Cohort D 500 mg single dose, Day 4, baseline mean 990.0
  LDL-C, Mean (SD): 950.0 mg/L
Cohort D 500 mg single dose, Day 7/Early termination, baseline mean 0.7507
  Triglyceride, Mean (SD): 0.9937 mmol/L
Cohort D 500 mg single dose, Day 7/Early termination, baseline mean 4.2838
  Cholesterol, Mean (SD): 3.8103 mmol/L
Cohort D 500 mg single dose, Day 7/Early termination, baseline mean 546.7
  HDL-C, Mean (SD): 421.7 (83.8) mg/L
Cohort D 500 mg single dose, Day 7/Early termination, baseline mean 990.0
  LDL-C, Mean (SD): 928.3 mg/L
Cohort D 500 mg single dose, Follow up, baseline mean 0.7507
  Triglyceride, Mean (SD): 0.5627 mmol/L
Cohort D 500 mg single dose, Follow up, baseline mean 4.2838
  Cholesterol, Mean (SD): 3.6505 mmol/L
Cohort D 500 mg single dose, Follow up, baseline mean 546.7
  HDL-C, Mean (SD): 450.0 (85.1) mg/L
Cohort D 500 mg single dose, Follow up, baseline mean 990.0
  LDL-C, Mean (SD): 843.3 mg/L
Cohort E 1000 mg single dose, Day 2, baseline mean 1.0275
  Triglyceride, Mean (SD): 2.3427 mmol/L
Cohort E 1000 mg single dose, Day 2, baseline mean 4.1332
  Cholesterol, Mean (SD): 3.5257 mmol/L
Cohort E 1000 mg single dose, Day 2, baseline mean 413.3
  HDL-C, Mean (SD): 166.7 (45.5) mg/L
Cohort E 1000 mg single dose, Day 2, baseline mean 986.7
  LDL-C, Mean (SD): 840.0 mg/L
Cohort E 1000 mg single dose, Day 4, baseline mean 1.0275
  Triglyceride, Mean (SD): 1.9683 mmol/L
Cohort E 1000 mg single dose, Day 4, baseline mean 4.1332
  Cholesterol, Mean (SD): 3.2498 mmol/L
Cohort E 1000 mg single dose, Day 4, baseline mean 413.3
  HDL-C, Mean (SD): 180.0 (52.5) mg/L
Cohort E 1000 mg single dose, Day 4, baseline mean 986.7
  LDL-C, Mean (SD): 800.0 mg/L
Cohort E 1000 mg single dose, Day 7/Early termination, baseline mean 1.0275
  Triglyceride, Mean (SD): 1.2210 mmol/L
Cohort E 1000 mg single dose, Day 7/Early termination, baseline mean 4.1332
  Cholesterol, Mean (SD): 3.7628 mmol/L
Cohort E 1000 mg single dose, Day 7/Early termination, baseline mean 413.3
  HDL-C, Mean (SD): 303.3 (61.5) mg/L
Cohort E 1000 mg single dose, Day 7/Early termination, baseline mean 986.7
  LDL-C, Mean (SD): 1003.3 mg/L
Cohort E 1000 mg single dose, Follow up, baseline mean 1.0275
  Triglyceride, Mean (SD): 0.7565 mmol/L
Cohort E 1000 mg single dose, Follow up, baseline mean 4.1332
  Cholesterol, Mean (SD): 3.7410 mmol/L
Cohort E 1000 mg single dose, Follow up, baseline mean 413.3
  HDL-C, Mean (SD): 343.3 (47.2) mg/L
Cohort E 1000 mg single dose, Follow up, baseline mean 986.7
  LDL-C, Mean (SD): 988.3 mg/L
Cohort J 2000 mg single dose, Day 2, baseline mean 0.9975
  Triglyceride, Mean (SD): 2.0737 mmol/L
Cohort J 2000 mg single dose, Day 2, baseline mean 4.4608
  Cholesterol, Mean (SD): 3.9952 mmol/L
Cohort J 2000 mg single dose, Day 2, baseline mean 543.3
  HDL-C, Mean (SD): 225.0 (76.6) mg/L
Cohort J 2000 mg single dose, Day 2, baseline mean 1051.7
  LDL-C, Mean (SD): 901.7 mg/L
Cohort J 2000 mg single dose, Day 4, baseline mean 0.9975
  Triglyceride, Mean (SD): 1.7668 mmol/L
Cohort J 2000 mg single dose, Day 4, baseline mean 4.4608
  Cholesterol, Mean (SD): 3.4133 mmol/L
Cohort J 2000 mg single dose, Day 4, baseline mean 543.3
  HDL-C, Mean (SD): 171.7 (55.6) mg/L
Cohort J 2000 mg single dose, Day 4, baseline mean 1051.7
  LDL-C, Mean (SD): 865.0 mg/L
Cohort J 2000 mg single dose, Day 7/Early termination, baseline mean 0.9975
  Triglyceride, Mean (SD): 0.7867 mmol/L
Cohort J 2000 mg single dose, Day 7/Early termination, baseline mean 4.4608
  Cholesterol, Mean (SD): 3.9437 mmol/L
Cohort J 2000 mg single dose, Day 7/Early termination, baseline mean 543.3
  HDL-C, Mean (SD): 253.3 mg/L
Cohort J 2000 mg single dose, Day 7/Early termination, baseline mean 1051.7
  LDL-C, Mean (SD): 1135.0 mg/L
Cohort J 2000 mg single dose, Follow up, baseline mean 0.9975
  Triglyceride, Mean (SD): 0.4255 mmol/L
Cohort J 2000 mg single dose, Follow up, baseline mean 4.4608
  Cholesterol, Mean (SD): 3.7112 mmol/L
Cohort J 2000 mg single dose, Follow up, baseline mean 543.3
  HDL-C, Mean (SD): 405.0 (45.9) mg/L
Cohort J 2000 mg single dose, Follow up, baseline mean 1051.7
  LDL-C, Mean (SD): 951.7 mg/L
